Test results as given in paper PMC6018554, “2-[2-(4-(trifluoromethyl)phenylamino)thiazol-4-yl]acetic acid (Activator-3) is a potent activator of AMPK” (Scientific Reports, 2018).

What was measured:
[1] = biological target: T1, recombinant human AMPK α2β2γ2 (Homo sapiens, UniProt Q9UGJ0); design: method as in PMID 28705990; conditions: cited from earlier work
T1 construct: purchased SignalChem; host or cells: baculovirus expression

[2] = biological target: T2, recombinant human AMPK α1β1γ1 (Homo sapiens, UniProt P54619); experiment: In vitro AMP kinase assay (pACC ELISA), α1β1γ1; assay type: biochemical; conditions: AMP 1 µM to 300 µM with Activator-3 30 nM
T2 construct: purchased SignalChem P47-10H-05/P48-10H-05 (for all four isozymes together); host or cells: baculovirus expression
Excerpt: Having observed the effect of Activator-3 on the activation of AMPK in cell based assays, we next examined whether Activator-3 could activate AMPK directly or not. […] The activity of recombinant human AMPK (α1β1γ1, α2β1γ1, α2β2γ2 and α2β2γ3) in the presence of vehicle was considered as 100%. The EC50 of Activator-3 for the activation of α1β1γ1, α2β1γ1 and α2β2γ2 isozymes were similar. However, the activity of Activator-3 against α2β2γ3 was marginally higher (Fig. 1C).
(§1) A high binding Enzyme Immuno Assay (EIA) 96-well plate (Sigma: Cat# CLS3590) was coated with Acetyl CoA Carboxylase 2 (ACC: 175–271 amino acids) peptide, a direct substrate for AMPK, 100 ng per well (1:1000 ratio, Cat# 12–491, Upstate biotechnology) and incubated overnight at 25 °C. Reaction mixture was incubated at 30 °C for 2 h and reaction was stopped by washing the plate with 0.05% Tween 20 followed by incubation with pACC primary antibody and rabbit secondary antibody as described in cell based ELISA section. Assay buffer is composed of 10 mM DTT, 100 mM magnesium acetate, 50 μM ATP and 10 mM HEPES.

[3] = biological target: T3, human recombinant α1β1γ1 AMPK γ1 mutants (R70G, R152G) (Homo sapiens, UniProt P54619, R70G); experiment: In vitro kinase assay with mutant AMPK pulled down from HEK-293T cells; assay type: biochemical; conditions: 100 µM AMP; γ1 R70G
T3 construct: SFB triple tag (Streptavidin, Flag and Biotin; SFB-pDEST); host or cells: HEK-293T, streptavidin-bead pull-down with biotin elution
Method: as §1
(§2) R70 and R152 residues in AMPK γ1 subunit (pDONR223-PRKAG1: purchased from addgene, cat# plasmid#23718) are mutated to glycine using overlapping extension PCR. Subsequently, the mutants were transferred into a triple tagged destination vector (Streptavidin, Flag and Biotin; SFB-pDEST) by using gateway cloning technology. The mutant DNA was transfected into HEK-293T cells using PEI following standard procedures. After 4 h of transfection, media was changed to DMEM containing 10% FBS. Cells were lysed in TENNS lysis buffer (20 mM Tris pH:8.0, 100 mM NaCl, 1 mM EDTA, 10 mM Na2H2P2O7, 10 mM NaF, 10 mM Na3VO4, 0.5% NP40) and subjected to pull down using streptavidin beads followed by biotin elution. To protect the protein from dephosphorylation, cells were treated with 500 μM AICAR prior to lysis. This purified protein was estimated by using nanodrop and taken for in vitro kinase assay to check whether Activator-3 is binding to the mutant AMPK or not, and the activity of the mutant protein was assessed by comparing with the wild type protein activity.

[4] = system: human recombinant α1β1γ1 AMPK γ1 mutants (R70G, R152G); experiment: as above; assay type: biochemical; conditions: 100 µM AMP; γ1 mutants
Method: as §1, §2

[5] = system: PFK1; experiment: PFK activity assay kit; assay type: biochemical; conditions: AMP at 100 µM and 1 mM

T1 sequence (Q9UGJ0 whole entry): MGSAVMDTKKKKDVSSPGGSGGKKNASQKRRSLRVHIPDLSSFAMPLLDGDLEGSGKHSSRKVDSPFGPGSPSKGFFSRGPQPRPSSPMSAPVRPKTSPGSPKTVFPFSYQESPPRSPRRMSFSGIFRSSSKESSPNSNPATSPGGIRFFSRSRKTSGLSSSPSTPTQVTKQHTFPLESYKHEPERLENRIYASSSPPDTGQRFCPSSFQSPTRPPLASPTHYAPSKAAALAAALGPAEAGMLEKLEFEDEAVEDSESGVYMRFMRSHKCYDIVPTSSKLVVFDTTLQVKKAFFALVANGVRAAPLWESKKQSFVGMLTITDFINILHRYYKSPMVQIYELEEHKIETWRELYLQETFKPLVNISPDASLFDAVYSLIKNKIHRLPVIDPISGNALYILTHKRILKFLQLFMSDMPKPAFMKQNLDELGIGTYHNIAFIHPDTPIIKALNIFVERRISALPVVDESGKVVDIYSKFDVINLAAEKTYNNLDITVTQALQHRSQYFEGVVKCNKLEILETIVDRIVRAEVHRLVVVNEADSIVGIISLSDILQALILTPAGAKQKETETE
T1 sequence (P54646 whole entry partner): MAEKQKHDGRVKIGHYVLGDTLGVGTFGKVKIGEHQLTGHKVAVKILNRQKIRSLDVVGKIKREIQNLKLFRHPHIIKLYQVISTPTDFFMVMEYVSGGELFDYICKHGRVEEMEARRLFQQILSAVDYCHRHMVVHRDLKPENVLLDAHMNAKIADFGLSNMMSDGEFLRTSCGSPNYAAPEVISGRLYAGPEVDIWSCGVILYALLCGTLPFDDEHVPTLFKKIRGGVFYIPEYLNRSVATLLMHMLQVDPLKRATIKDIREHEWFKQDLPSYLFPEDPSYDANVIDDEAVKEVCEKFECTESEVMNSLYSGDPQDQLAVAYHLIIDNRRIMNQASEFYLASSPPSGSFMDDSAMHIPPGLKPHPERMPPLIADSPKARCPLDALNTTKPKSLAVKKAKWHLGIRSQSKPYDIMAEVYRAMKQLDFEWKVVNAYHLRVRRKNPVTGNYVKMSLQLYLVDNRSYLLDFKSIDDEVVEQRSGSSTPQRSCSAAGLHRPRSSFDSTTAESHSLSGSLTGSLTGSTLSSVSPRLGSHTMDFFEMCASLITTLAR
T1 sequence (O43741 whole entry partner): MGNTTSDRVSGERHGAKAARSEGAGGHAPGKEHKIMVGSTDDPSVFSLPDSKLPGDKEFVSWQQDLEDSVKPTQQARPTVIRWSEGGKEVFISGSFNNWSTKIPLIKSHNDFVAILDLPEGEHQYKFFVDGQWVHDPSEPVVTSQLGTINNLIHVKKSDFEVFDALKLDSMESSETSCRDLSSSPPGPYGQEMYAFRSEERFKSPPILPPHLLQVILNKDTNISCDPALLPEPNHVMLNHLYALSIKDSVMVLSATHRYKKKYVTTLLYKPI
T3 sequence (P54619 whole entry R70G): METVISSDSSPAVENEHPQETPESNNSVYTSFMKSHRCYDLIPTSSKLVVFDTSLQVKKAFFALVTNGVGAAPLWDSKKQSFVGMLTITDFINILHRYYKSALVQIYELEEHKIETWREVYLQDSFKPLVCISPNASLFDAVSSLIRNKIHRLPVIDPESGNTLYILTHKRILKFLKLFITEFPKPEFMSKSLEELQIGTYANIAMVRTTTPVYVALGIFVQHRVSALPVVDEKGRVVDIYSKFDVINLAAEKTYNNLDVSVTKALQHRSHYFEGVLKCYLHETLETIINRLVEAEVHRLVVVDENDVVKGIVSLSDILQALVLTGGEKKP
T3 sequence (Q13131 whole entry partner): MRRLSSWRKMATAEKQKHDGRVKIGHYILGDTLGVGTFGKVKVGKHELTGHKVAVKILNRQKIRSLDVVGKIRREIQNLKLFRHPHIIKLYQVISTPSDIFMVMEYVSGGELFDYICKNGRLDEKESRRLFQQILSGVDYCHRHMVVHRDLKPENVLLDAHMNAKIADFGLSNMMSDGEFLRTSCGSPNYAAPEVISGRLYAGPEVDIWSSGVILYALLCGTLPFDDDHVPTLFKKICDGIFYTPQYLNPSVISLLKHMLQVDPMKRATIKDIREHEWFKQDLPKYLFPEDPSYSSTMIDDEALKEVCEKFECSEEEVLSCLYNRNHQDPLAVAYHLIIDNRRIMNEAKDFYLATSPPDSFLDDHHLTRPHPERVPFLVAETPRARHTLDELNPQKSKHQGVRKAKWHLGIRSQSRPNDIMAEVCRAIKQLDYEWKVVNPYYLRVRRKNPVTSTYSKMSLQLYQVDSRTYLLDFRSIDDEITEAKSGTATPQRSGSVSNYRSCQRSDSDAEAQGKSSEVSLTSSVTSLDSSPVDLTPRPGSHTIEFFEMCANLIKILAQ
T3 sequence (Q9Y478 2-270 partner): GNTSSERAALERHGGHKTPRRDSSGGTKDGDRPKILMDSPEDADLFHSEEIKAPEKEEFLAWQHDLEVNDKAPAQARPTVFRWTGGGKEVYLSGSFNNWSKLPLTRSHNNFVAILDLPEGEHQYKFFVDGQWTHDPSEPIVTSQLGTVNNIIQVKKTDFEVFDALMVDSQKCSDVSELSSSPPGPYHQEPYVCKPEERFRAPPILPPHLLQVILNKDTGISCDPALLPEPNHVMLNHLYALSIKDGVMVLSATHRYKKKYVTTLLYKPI
T2 sequence (P54619 whole entry): as the sequence (P54619 whole entry R70G) above, with G70R counted along it
T2 sequence (Q13131 whole entry partner): as the sequence (Q13131 whole entry partner) above
T2 sequence (Q9Y478 whole entry partner): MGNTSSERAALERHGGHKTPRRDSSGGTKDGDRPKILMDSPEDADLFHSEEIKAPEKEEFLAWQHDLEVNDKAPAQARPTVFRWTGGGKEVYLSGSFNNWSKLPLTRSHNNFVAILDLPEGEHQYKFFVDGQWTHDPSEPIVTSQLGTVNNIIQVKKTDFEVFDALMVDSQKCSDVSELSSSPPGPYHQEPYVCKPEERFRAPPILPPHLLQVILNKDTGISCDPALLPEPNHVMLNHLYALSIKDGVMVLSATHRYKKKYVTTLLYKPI

Row | SMILES | Emax compared to basal activity [1] | α1β1γ1 activity compared to 30 nM Activator-3 alone [2] | activation of AMPK, effect of R70G mutation [3] | AMPK activity of mutant proteins vs wild type [4] | effect on PFK1 activity [5]
1 | O[C@@H]1CO[C@H]2[C@@H]1OC[C@H]2Oc1nc2nc(-c3ccc(-c4ccccc4)cc3)c(Cl)cc2[nH]1 [MK-8722] | ~ 250% |  |  |  | 
2 | Nc1ncnc2c1ncn2C1OC(COP(=O)(O)O)C(O)C1O (centres unmarked) [AMP, reference compound] |  | progressive enhancement | did not impact | significant reduction | activated
